For 7 molecules, AC50, EC50 and IC50 results are on record in ChEMBL document CHEMBL1201862, “PubChem BioAssay data set” (2004).

Calls of active or inactive are those of the source. Some results are limits rather than exact numbers.

For assay [1], the target named is T1, CAAX prenyl protease 2 (Saccharomyces cerevisiae S288c, UniProt Q03530).
T1 sequence (Q03530 whole entry): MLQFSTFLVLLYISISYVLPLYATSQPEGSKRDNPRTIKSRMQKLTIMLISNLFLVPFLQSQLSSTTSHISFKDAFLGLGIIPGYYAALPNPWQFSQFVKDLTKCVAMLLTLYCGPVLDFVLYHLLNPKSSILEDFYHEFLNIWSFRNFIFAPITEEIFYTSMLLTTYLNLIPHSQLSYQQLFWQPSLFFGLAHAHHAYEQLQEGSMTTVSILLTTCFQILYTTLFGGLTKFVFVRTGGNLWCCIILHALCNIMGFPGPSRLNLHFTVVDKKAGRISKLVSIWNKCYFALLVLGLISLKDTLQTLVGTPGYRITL
In kind it is biochemical.

Assay [2] deals with CAAX prenyl protease 2 (Homo sapiens, UniProt Q9Y256). In words: human Rce1 protease inhibitors, dose response, biochemical, yeast membranes, quenched-peptide fluorescence, cherry-pick (AID 588849).
CAAX prenyl protease 2 (Homo sapiens, UniProt Q9Y256), sequence (Q9Y256 whole entry): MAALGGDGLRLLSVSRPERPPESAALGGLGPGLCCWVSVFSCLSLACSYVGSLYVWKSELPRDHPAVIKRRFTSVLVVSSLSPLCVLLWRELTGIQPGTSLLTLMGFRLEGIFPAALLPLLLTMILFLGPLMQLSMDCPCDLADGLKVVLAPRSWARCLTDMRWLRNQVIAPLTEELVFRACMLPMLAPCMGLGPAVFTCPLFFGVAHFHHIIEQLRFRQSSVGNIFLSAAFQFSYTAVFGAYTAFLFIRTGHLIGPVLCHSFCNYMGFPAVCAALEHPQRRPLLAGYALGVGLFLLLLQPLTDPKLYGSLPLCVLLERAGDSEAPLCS
The subject of assay [3] is Streptococcus sp. 'group A'. The experiment in a line: growth inhibition of control SK(-) GAS strain, dose response, counter-screen for streptokinase expression inhibitor project, luminescence, kanamycin, BacTiterGlo, confirmation (AID 1900). The class given is functional, organism-based.
For a further assay, the system named is Streptococcus. The experiment in a line: Group A Streptococcus viability loss, dose response, counter-screen for streptokinase expression inhibitor project, luminescence, BacTiterGlo (AID 1915).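 Note: potency for reduction of bacterial viability or growth.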 The class given is functional, organism-based. Background: A counterscreen serves to expose hits that act by an unwanted route or on another target.
For a further assay, the target named is Beta-galactosidase (Escherichia coli, UniProt Q8VNN2). The experiment in a line: beta-galactosidase enzyme inhibitors and activators, dose response, artefact control for CCR6 antagonist project, biochemical, E. coli enzyme, set 3 (AID 504712). In kind it is functional.
Beta-galactosidase, sequence (Q8VNN2 whole entry): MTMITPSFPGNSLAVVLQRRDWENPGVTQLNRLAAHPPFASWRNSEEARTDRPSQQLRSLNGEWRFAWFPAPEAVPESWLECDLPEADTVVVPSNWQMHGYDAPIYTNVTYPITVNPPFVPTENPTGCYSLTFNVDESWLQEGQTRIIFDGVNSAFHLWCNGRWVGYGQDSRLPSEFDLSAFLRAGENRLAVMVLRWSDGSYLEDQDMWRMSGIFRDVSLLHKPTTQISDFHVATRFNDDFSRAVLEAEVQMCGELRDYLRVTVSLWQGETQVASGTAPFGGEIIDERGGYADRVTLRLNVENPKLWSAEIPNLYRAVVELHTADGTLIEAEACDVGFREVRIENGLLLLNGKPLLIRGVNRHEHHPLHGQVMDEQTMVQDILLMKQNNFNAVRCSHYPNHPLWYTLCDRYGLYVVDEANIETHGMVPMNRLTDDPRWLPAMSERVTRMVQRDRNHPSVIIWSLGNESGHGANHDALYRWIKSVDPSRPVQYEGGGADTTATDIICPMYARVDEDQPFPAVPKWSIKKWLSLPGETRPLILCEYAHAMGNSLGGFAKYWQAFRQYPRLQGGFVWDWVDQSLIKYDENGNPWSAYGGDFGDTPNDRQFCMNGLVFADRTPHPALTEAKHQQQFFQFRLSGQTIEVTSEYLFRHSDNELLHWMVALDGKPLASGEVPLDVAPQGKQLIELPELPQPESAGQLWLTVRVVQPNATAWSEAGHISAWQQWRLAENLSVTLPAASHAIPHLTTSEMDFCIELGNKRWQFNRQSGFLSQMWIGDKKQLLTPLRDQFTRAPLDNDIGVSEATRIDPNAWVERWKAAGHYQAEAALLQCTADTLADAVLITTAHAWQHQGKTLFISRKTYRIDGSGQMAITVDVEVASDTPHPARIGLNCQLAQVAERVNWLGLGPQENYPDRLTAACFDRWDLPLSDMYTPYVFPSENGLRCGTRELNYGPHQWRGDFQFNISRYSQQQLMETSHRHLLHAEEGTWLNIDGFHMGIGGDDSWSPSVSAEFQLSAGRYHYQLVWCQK
Assay [4] addresses T2, Short transient receptor potential channel 4 (Mus musculus, UniProt Q9QUQ5).
T2 sequence (Q9QUQ5 whole entry): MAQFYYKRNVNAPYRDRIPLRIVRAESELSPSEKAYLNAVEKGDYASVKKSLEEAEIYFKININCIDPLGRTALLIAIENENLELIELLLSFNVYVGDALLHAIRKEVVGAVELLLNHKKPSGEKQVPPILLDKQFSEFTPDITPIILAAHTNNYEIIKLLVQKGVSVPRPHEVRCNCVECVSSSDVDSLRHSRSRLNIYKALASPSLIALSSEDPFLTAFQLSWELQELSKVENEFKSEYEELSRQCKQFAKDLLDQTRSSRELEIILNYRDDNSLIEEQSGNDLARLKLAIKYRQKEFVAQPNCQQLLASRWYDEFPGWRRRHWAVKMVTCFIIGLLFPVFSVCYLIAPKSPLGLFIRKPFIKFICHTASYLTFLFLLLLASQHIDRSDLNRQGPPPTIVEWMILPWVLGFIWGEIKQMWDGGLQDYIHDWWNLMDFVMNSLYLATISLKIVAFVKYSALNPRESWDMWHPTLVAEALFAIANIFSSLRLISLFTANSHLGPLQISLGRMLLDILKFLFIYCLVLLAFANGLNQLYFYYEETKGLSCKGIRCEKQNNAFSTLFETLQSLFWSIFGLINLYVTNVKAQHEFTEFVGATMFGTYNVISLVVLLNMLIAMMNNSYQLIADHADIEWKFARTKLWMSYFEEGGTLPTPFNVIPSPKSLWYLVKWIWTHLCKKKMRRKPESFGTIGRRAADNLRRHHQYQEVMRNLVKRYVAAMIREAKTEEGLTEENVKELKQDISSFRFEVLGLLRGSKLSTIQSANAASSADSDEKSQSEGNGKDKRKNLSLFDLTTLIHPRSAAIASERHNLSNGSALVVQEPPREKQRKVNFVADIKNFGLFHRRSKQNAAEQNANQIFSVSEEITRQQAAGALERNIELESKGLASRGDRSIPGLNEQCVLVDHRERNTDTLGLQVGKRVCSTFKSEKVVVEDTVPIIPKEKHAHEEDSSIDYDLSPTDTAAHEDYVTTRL
In words: mouse TRPC4 channel activators, dose response, cell-based, HEK293 TRPC4/mu-opioid, Fluo-4 calcium (AID 434937). The class given is functional.

The target in assay [5] is T3, Replicative DNA helicase DnaB (Mycobacterium tuberculosis, UniProt P9WMR3).
T3 sequence (P9WMR3 whole entry): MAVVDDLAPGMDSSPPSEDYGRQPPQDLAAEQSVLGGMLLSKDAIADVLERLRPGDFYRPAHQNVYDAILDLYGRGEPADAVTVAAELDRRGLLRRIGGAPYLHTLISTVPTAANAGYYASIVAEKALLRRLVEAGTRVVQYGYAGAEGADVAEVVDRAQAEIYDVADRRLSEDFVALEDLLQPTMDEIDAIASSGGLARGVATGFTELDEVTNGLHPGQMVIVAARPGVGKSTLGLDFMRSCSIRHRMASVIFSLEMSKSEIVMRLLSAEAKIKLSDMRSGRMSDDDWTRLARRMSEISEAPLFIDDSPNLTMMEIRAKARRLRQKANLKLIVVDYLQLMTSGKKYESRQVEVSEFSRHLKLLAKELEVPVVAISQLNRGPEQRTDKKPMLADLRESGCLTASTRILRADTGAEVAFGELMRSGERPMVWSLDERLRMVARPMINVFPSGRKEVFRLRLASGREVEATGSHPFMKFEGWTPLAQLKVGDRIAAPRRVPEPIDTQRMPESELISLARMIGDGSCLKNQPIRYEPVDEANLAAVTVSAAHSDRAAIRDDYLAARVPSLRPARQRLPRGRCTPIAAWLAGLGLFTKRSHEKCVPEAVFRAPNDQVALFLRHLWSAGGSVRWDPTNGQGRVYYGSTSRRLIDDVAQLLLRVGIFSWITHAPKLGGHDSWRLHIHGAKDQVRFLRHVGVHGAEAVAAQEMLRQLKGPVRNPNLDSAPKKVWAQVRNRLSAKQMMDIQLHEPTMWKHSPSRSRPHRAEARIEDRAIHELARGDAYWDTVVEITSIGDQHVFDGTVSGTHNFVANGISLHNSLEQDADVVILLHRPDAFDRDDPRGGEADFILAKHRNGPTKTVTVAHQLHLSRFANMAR
In words: DnaB intein splicing inhibitors, dose response, biochemical, cell-free fluorescence (AID 449749). In kind it is functional.

The target in a further assay is Apelin receptor (Homo sapiens, UniProt P35414). In words: APJ beta-arrestin recruitment antagonism, SAR follow-up, selectivity assay for CCR6 antagonist project, cell-based, luminescent, enzyme-fragment complementation (AID 588359). In kind it is functional.
Apelin receptor, sequence (P35414 whole entry, the tested form may be a part): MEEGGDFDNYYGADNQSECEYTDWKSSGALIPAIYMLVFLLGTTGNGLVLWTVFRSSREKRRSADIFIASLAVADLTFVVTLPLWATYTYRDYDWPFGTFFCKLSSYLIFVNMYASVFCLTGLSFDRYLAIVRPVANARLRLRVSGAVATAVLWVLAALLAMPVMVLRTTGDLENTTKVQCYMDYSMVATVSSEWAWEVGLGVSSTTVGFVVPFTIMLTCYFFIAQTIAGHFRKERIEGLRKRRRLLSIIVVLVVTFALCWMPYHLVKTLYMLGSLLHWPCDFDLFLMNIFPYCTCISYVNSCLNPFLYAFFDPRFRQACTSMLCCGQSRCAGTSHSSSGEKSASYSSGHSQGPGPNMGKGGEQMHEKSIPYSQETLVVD
The next assay deals with T4, Protein RecA (Mycobacterium tuberculosis, UniProt P9WHJ3).
T4 sequence (P9WHJ3 whole entry): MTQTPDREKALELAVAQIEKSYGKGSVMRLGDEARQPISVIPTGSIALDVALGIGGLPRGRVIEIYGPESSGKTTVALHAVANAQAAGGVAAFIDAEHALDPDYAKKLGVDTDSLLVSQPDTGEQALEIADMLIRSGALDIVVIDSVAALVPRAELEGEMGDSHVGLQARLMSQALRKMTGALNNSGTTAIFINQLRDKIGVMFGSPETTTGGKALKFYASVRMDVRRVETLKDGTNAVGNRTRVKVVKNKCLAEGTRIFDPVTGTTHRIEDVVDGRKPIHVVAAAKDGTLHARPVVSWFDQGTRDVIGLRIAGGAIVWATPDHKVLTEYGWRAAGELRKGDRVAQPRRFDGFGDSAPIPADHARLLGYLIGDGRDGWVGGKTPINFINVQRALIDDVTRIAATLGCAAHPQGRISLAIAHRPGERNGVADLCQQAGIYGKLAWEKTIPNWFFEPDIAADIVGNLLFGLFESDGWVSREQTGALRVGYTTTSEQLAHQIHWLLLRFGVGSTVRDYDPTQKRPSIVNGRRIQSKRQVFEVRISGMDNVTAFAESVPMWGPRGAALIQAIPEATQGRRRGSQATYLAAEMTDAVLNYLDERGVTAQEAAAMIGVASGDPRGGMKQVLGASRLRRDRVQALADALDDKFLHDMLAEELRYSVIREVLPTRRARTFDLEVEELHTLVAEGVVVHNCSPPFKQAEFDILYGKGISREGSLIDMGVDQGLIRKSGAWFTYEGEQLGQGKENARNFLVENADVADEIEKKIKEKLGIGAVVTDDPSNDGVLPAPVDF
In words: Fluorescence Cell-Free Homogeneous Dose Retest to Identify Inhibitors of RecA-Intein Splicing Activity. [Related pubchem assays (depositor defined):AID2097, AID2223, AID489010, AID492950]. In kind it is functional.

Assay [6] deals with HEK293. The experiment in a line: cells. Particulars: Homo sapiens.
Assay [7] relates to HEK293. The experiment in a line: cells. Particulars: Homo sapiens. The source holds these as a separate data set.
For assay [8], the target named is Induced myeloid leukemia cell differentiation protein Mcl-1 (Homo sapiens, UniProt Q07820). In kind it is functional.
Induced myeloid leukemia cell differentiation protein Mcl-1, sequence (Q07820 whole entry): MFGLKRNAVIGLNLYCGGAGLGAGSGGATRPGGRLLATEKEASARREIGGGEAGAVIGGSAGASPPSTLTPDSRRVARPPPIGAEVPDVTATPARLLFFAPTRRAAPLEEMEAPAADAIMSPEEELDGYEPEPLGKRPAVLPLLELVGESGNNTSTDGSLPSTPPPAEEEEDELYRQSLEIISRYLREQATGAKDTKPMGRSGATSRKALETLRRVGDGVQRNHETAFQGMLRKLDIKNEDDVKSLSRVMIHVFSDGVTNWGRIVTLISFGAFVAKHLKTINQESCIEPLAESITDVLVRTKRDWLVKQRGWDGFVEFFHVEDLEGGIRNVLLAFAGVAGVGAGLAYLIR
The next assay has as its target Paired box protein Pax-8 (Homo sapiens, UniProt Q06710). In words: inhibitors of PAX8-driven TPO luciferase reporter, dose response, RMG-I cells, cherry-pick (AID 687027).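 Note: luciferase reporter driven by Pax8 target thyroperoxidase promoter measured by SteadyGlo luminescence.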 The class given is functional, cell-based.
The target of assay [9] is Dual specificity protein kinase CLK1 (Homo sapiens, UniProt P49759). The experiment in a line: CLK1 kinase inhibitors, off-target check, dose response, selectivity assay for Dyrk1A inhibitor project, biochemical, cherry-picked samples (AID 588811).
Dual specificity protein kinase CLK1, sequence (P49759 whole entry): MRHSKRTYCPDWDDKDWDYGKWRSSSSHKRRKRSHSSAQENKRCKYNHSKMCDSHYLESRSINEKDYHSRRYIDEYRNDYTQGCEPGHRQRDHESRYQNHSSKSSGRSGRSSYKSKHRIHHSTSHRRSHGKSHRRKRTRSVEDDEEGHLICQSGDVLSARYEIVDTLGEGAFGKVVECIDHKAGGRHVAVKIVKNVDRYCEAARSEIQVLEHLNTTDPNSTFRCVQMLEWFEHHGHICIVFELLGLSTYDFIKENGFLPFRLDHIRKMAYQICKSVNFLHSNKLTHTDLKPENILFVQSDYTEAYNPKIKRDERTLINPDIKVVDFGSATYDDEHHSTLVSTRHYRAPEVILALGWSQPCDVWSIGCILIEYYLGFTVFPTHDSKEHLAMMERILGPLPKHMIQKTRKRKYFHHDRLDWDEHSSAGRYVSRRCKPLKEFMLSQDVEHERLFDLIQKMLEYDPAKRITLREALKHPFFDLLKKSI
The target in assay [10] is Dual specificity tyrosine-phosphorylation-regulated kinase 1A (Rattus norvegicus, UniProt Q63470). In kind it is biochemical, Homo sapiens.
In the next assay the target is T5, Interleukin-8 (Homo sapiens, UniProt P10145).
T5 sequence (P10145 whole entry): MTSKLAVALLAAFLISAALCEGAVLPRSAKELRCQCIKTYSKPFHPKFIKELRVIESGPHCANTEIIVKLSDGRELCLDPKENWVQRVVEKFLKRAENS
In words: Dose Response confirmation of uHTS small molecule hits for cystic fibrosis induced NFkb Inhibitors in a PAF-induced IL8 counterscreen. The class given is functional. Particulars: read-out: IC50_Mean.

For assay [11], the target named is Disintegrin and metalloproteinase domain-containing protein 17 (Homo sapiens, UniProt P78536). The experiment in a line: exosite inhibitors of ADAM17, dose response, biochemical (AID 743260).
Disintegrin and metalloproteinase domain-containing protein 17, sequence (P78536 whole entry, the tested form may be a part): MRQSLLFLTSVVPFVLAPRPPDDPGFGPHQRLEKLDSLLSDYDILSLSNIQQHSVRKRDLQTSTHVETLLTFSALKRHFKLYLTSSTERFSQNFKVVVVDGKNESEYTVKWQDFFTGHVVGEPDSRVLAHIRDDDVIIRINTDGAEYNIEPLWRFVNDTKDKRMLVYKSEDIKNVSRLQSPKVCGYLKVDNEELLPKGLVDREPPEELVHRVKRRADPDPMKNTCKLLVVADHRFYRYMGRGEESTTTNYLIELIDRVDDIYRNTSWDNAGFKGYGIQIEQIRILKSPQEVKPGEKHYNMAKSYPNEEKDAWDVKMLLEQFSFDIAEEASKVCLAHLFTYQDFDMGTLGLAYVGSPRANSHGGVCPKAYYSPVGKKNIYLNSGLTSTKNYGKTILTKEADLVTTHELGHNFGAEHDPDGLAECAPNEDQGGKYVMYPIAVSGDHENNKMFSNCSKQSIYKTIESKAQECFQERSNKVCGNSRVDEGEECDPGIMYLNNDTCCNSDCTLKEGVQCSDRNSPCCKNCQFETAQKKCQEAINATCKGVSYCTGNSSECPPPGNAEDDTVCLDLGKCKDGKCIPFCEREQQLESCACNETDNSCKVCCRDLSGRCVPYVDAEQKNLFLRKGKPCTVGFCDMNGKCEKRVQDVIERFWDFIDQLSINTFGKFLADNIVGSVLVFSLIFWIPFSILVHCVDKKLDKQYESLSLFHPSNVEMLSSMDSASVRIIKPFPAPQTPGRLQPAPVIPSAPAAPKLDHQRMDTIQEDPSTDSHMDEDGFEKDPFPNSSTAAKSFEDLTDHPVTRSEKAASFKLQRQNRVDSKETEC
The nature of assay [12]: ADAM10 protease inhibitors, dose response, selectivity assay for ADAM17 exosite inhibitor project, biochemical, FRET peptide substrate, recombinant human ADAM10 (AID 743259).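 Note: ADAM10 enzyme cleaving a FRET peptide substrate.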

Paired box protein Pax-8, sequence (Q06710 whole entry): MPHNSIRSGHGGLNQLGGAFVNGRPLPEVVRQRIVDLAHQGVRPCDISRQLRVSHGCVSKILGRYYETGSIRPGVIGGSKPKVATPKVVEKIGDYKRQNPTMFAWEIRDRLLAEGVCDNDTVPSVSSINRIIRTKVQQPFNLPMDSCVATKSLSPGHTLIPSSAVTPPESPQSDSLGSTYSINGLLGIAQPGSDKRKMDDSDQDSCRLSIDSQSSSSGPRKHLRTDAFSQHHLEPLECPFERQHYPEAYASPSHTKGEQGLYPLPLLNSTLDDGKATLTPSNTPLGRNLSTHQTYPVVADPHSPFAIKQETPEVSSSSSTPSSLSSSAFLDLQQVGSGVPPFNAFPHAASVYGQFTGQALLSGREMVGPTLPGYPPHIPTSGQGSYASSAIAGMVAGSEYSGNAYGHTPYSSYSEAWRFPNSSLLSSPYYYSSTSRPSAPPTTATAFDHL

For `CCOc1ccc2nc(O)c(CN(CCN3CCOCC3)Cc3nnnn3C(C)(C)CC)cc2c1`, the AC50 (in general, the concentration at which the activity in the assay is half-maximal) at CAAX prenyl protease 2 [1] was > 100 µM (inactive); on CAAX prenyl protease 2 [2], 7.54 µM (active).

Consider `COC(=O)C1=NN(C(=O)c2cccc(Br)c2)C(O)(c2ccc(Cl)cc2)C1` (stereo not given), for which the 50% effective concentration (EC50) (in general, the concentration giving half of the maximal effect) in assay [3] was 2.9 µM (active); in the assay on Streptococcus, 3.87 µM (active); in assay [4], 5.31 µM (active); on Protein RecA, 13.7 µM (active). For the same molecule, the IC50 is > 66.6 µM (inactive) at Beta-galactosidase and 12.1 µM (active) at Apelin receptor. For the same molecule, the AC50 in assay [5] was > 380 µM (inactive).

Turning to `CCCCC(=O)NC(=S)Nc1cccc(Cl)c1N1CCCCC1`, the EC50 in the assay with HEK293 [6] and in the assay with HEK293 [7] was > 59.7 µM (inactive) each time.

Turning to `CCN(CC)S(=O)(=O)c1cc(NC(=O)Cn2ncc(Cl)c(Cl)c2=O)ccc1C`, the IC50 in assay [8] was 4.21 µM (active). Also, the figures for the half-maximal activity concentration (AC50) (in assay [5]; on Paired box protein Pax-8) were 11.8 µM (active) and 4.84 µM (active), respectively. Besides, the EC50 is 14.5 µM (active) on Protein RecA, > 59.6 µM (inactive) with HEK293 [6] and > 59.6 µM (inactive) with HEK293 [7].

For `CC1Cc2ccccc2N1c1ncnc2nc[nH]c12` (stereo not given), the AC50 in assay [9] is 0.19 µM (active); in assay [10], 0.811 µM (active). Moreover, the IC50 at Interleukin-8 was 10.5 µM (inactive).

`O=C(Nc1cccc2ccccc12)c1ccc(OC(=S)N2CCOCC2)cc1`: the AC50 on CAAX prenyl protease 2 [2] is > 100 µM (inactive). Also, the IC50 in assay [11] and in assay [12] was > 69.5 µM (inactive) each time.

Consider `COc1cccc(Nc2ncnc3ccccc23)c1`, for which the figures for the concentration at half-maximal activity (AC50) in [9] and in assay [10] were 3.94 µM (active) and 4.91 µM (active), respectively.
